Source: patent publication US7572826B2, “Thiophene-carboxamide derivatives and their use as inhibitors of the enzyme IKK-2” (AstraZeneca AB, priority 2003, dated 2009)

Columns and labels:
[1] = target: T1, IKK-2 (Homo sapiens, UniProt O14920); assay: IKK-2 filter kinase assay; type: biochemical; conditions: 1 μM ATP, 1-53 GST-IκB substrate, read-out: Inhibition of IKK-2 IC50
T1 sequence (O14920 1-756): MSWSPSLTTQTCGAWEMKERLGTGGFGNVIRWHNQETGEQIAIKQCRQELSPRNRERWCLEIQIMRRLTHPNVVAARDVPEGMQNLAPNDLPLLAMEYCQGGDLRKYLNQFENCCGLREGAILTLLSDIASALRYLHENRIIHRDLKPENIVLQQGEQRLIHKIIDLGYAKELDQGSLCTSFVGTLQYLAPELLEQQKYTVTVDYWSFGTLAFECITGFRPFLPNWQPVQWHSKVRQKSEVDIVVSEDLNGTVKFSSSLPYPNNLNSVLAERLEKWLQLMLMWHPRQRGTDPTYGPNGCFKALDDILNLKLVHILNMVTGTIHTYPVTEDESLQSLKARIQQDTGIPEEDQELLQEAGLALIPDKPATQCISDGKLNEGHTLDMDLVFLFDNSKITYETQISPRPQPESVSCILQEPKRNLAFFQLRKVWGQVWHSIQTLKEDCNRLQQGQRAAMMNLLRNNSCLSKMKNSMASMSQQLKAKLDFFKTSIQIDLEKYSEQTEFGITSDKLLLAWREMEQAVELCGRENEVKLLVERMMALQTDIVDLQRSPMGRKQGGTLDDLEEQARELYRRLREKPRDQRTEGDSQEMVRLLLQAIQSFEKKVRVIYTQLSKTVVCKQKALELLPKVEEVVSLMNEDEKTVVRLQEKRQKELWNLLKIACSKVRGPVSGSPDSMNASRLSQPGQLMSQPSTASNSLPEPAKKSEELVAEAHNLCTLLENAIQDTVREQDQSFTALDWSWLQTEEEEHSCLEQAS
Procedure: The test compounds were dissolved to 10 mM in dimethylsulphoxide (DMSO). The compounds were then diluted 1 in 40 in kinase buffer (50 mM Tris, pH 7.4 containing 0.1 mM EGTA, 0.1 mM sodium orthovanadate and 0.1% β-mercaptoethanol). 1 in 3 serial dilutions were made from this solution with 2.5% DMSO in kinase buffer. 20 μl of compound dilution was added to wells of a 96 well plate in duplicate.
10 μl of a mixture of magnesium acetate, unlabelled ATP, and ^33P-labelled ATP was added to each well made such that the final concentration was 10 mM magnesium acetate, 1 μM ATP and 0.1 μCi ^33P ATP. […] The final reaction volume was 50 μl.
The kinase reactions were incubated at 21° C. for 80 minutes and the reaction stopped by precipitating the protein by the addition of an equal volume (50 μl) of 20% trichloroacetic acid (TCA). The precipitate was allowed to form for 10 minutes and then filtered onto a GF/C unifilter 96 well plate. Each filter was washed twice with approximately 1 ml 2% TCA. The filter plate was dried at 30-40° C. for 60 minutes, 20 μl scintillant was added to each well and the plate sealed and radioactivity counted on a Packard Topcount microplate scintillation counter.

[2] = test system: human peripheral blood mononuclear cells (PBMCs); assay: Inhibition of LPS-induced TNFα production by PBMCs; type: cell-based; conditions: PBMC, inhibition of LPS-stimulated TNFα production
Procedure: The effect of test compounds on nuclear factor kappa B (NFκB) activation in cells was assessed by measuring inhibition of tumour necrosis factor alpha (TNFα) production by human peripheral blood mononuclear cells (PBMCs) stimulated by bacterial lipopolysaccharide (LPS).
Human blood (250 ml), anticoagulated with heparin, was collected from healthy volunteers. Aliquots of blood (25 ml) were layered on 20 ml Lymphoprep (Nycomed) in 50 ml polypropylene centrifuge tubes. The tubes were centrifuged (Sorval RT600B) at 2,500 rpm for 30 minutes. The cloudy layer containing PBMCs was collected with a fine tipped Pasteur pipette, transferred into 8 clean polypropylene centrifuge tubes (approximately 10 ml per tube) and diluted to 50 ml with phosphate-buffered saline (PBS). These tubes were centrifuged at 2,000 rpm for 8 minutes. PBS (10 ml) was added to each cell pellet and the cells were gently re-suspended. The cells were pooled in 4 centrifuge tubes, PBS was added to each tube to make the volume up to 50 ml and the tubes were centrifuged at 1,400 rpm for 8 minutes. The cell pellets were again re-suspended in 10 ml PBS, pooled in 2 centrige tubes, the volume made up to 50 ml with PBS and the tubes centrifuged at 900 rpm for 10 minutes.
The final cell pellets were gently re-suspended in 10 ml tissue culture medium (RPMI containing 1% heat-inactivated human serum, L-glutamine and penicillin and streptomycin), combined into 1 tube and the volume made up to 30 ml with RPMI medium. The cells were counted and the cell suspension was diluted to 2.6×10^6 cells/ml.
Test compounds were dissolved in DMSO to 10 mM and diluted 1 in 250 (40 μM) with RPMI medium. The compounds were then serially diluted 1 in 3 with 0.4% DMSO in RPMI medium. Aliquots of test compound dilutions (50 μl) were transferred to the wells of a 96-well plate. Control wells contained 0.4% DMSO in RPMI instead of compound.
Aliquots of the cell suspension (100 μl) were added to each well and the plates incubated at 37° C. for 30 minutes. 50 μl of 40 μg/ml LPS (Sigma, LA130) was added to wells to stimulate TNFα production by the cells and the plates were incubated overnight at 37° C. RPMI medium (50 μl) was added to negative control wells instead of LPS. The final incubation volume was 200 μl.
Plates were centrifuged for 4 minutes at 1,200 rpm and supernatants were removed for measurement of TNFα concentration. Viability of the remaining cell pellet was measured using WST-1 reagent (Boehringer Mannheim, 1044807). […] The absorbance at 450 nm was then measured using a 96-well plate spectrophotometer.
TNFα in the supernatants (freshly harvested or stored frozen at −20° C.) were measured using an enzyme-linked immunosorbant assay (ELISA). […]

Row | SMILES | IC50 [1] | IC50 [2]
1 | CN(C)Cc1ccc(-c2cc(C(N)=O)c(NC(N)=O)s2)cc1 [Example 5, 2-[(Aminocarbonyl)amino]-5-{4-[dimethylaminomethyl]phenyl}thiophene-3-carboxamide] | 13 nM | 120 nM
2 | NC(=O)Nc1sc(-c2ccc(CNCC(F)(F)F)cc2)cc1C(N)=O [Example 1] | 3.6 nM | 420 nM
3 | NC(=O)Nc1sc(-c2ccc(CN(CCO)Cc3ccccc3)cc2)cc1C(N)=O [Example 61, 2-[(Aminocarbonyl)amino]-5-[4-{([N-benzyl-N-(2-hydroxyethyl)]amino)methyl}phenyl]thiophene-3-carboxamide] | 0.56 nM | 340 nM
4 | COCCN(C)Cc1ccc(-c2cc(C(N)=O)c(NC(N)=O)s2)cc1 [Example 56] | 66 nM | 450 nM
